Test results taken from patent US20170112861A1, “DRUG DELIVERY ENHANCER COMPRISING SUBSTANCE FOR ACTIVATING LYSOPHOSPHOLIPID RECEPTORS” (Osaka University, priority 2014, published 2017).

Experiments:
[1] = tested on: Mouse pancreatic vascular endothelial cell line (MS-1); assay: In vitro barrier function of endothelial cell-cell junctions (ECIS-Zθ, resistance between cells Rb); assay type: cell-based; conditions: MS-1 cells, 10 μM
Experimental: In vitro barrier function of the cell-cell junctions of vascular endothelial cells in the presence of LPA or VPC 31144 (S) was analyzed using a real-time cell ECIS-Zθ analyzer (Applied Biophysics).
LPA and VPC 31144 (S) were each dissolved in 50% ethanol as a 10 mM LPA stock solution and stored at −30° C. Before use, the LPA stock solution was thawed and homogenized with an ultrasonic cleaner (SND Co., Ltd.) for 1 minute. The solution was diluted in a serum-free culture medium supplemented with 0.1% BSA to a concentration of 10 μM.
Mouse pancreatic vascular endothelial cell line (MS-1) was used. The cells were suspended in DMEM (Sigma) containing 5% FBS. The cell suspension was seeded on a well plate with electrodes (8W10E+, 8 wells) specially designed for the analyzer at a density of 1×10^5 cells in 400 μL per well, and the cells were cultured overnight in an incubator to confluence. The medium was replaced by serum-free culture medium containing 0.1% BSA, and the cells were incubated for 4 hours. The medium was replaced by culture medium (serum-free culture medium containing 0.1% BSA) containing 10 μM LPA or VPC 31144 (S). The medium of the control cultures was replaced by serum-free culture medium containing 0.1% BSA. After replacement of the medium, resistance between cells (Rb) was measured in real time to evaluate the barrier function.

[2] = tested on: Mouse colon cancer colon 26 cells; assay: Combined administration of LPA and 5-FU, tumor growth in colon 26 cell tumor-bearing mice; assay type: in vivo; conditions: colon 26 tumors in BALB/c mice; LPA 3 mg/kg i.p. once daily for seven days; 5-FU 100 mg/kg i.p. on days 7 and 14
Experimental: (§1) LLC cells were subcutaneously inoculated into C57BL/6 NCrSlc mice aged 8 weeks in the same manner as in Example 1. An LPA administration solution was prepared in the same manner as in Example 1. The anticancer drug used was 5-FU (Kyowa Hakko Kirin Co., Ltd.). The 5-FU was prepared as a solution in physiological saline (Otsuka Pharmaceutical Co., Ltd.). On day 7 post-inoculation of LLC cells, mice with a tumor volume of 30 to 50 mm^3 were selected and subjected to the test. The mice were divided into four groups: control group, 5-FU group, LPA group and 5-FU/LPA group (n=3). LPA (3 mg/kg in 100 μL PBS) or 5-FU (100 mg/kg in 100 μL PBS) or PBS (100 μL) was administered intraperitoneally. To 5-FU/LPA group, both LPA and 5-FU were administered intraperitoneally. LPA and PBS were administered once daily for consecutive seven days. 5-FU was administered twice in total, once a week for two weeks (on days 7 and 14 post-inoculation). The tumor size was measured over time after start of administration. The tumor volume was calculated by the formula: volume=length×width×height×0.5. Mice at 2 weeks after start of administration were photographed with a digital camera under anesthesia with pentobarbital. The tumors were harvested and photographed with a digital camera.
Mouse colon cancer colon 26 cells were used. […]

[3] = tested on: Mouse melanoma B16-BL6 cells; assay: Combined administration of LPA and 5-FU, tumor growth in B16-BL6 cell tumor-bearing mice; assay type: in vivo; conditions: B16-BL6 tumors; LPA 3 mg/kg i.p. once daily for seven days; 5-FU 100 mg/kg i.p. on days 7 and 14
Experimental: as §1
Mouse melanoma B16-BL6 cells were used. […]

For lysophosphatidic acid [LPA], the “duration of the increased barrier function” value [1] was “the increased barrier function in endothelial cells was maintained over a long period of time”, the “electric resistance (Rb), barrier function in endothelial cells” value ([1]; serum-free medium with 0.1% BSA, vs control) was “increased the electric signals as compared with the control” and the “tumor growth (tumor volume)” value [2] was “some inhibitory effects on tumor growth as compared with the control, up to day 17 post-inoculation”. The “tumor growth (tumor volume)” value [3] was “some inhibitory effects on tumor growth as compared with the control”.
